According to patent US8129398B2 (priority 2008, dated 2012):

Target: T1, HIV-integrase (Human immunodeficiency virus type 1 group M subtype B, UniProt P12497)
T1 construct: Recombinant integrase (0.26 ng) was incubated with the beads
Assay: HIV-Integrase Inhibition Activity (SPA bead integration assay with P33 labeled target DNA)
Format: biochemical
Conditions: recombinant integrase, class symbols; read-out: in vitro activity
Method: HIV-Integrase Inhibition Activity. To evaluate in-vitro activity against HIV-integrase, 5 pmole of biotin labeled substrate DNA was bound to 100 μg of Streptavidin coated PVT SPA beads (Amersham Pharmacia Biotech). Recombinant integrase (0.26 ng) was incubated with the beads for 90 min at 37° C. Unbound enzyme was removed by washing the complex followed by addition of inhibitors and 0.1 fmol of P33 labeled target DNA. The reaction was stopped by adding EDTA to a final concentration of 10 mM. Samples were counted in TopCountNXT (Packard) and the CPM was used as a measure of integration. The reaction condition was as described in A. Engelman and R. Craigie, J. Virol. 69, 5908-5911 (1995). The sequences of substrate and target DNA were described in Nucleic Acid Research 22, 1121-1122 (1994). Activity equal to A refers to a compound having IC50=<10 nM while B and C denote compounds having […] and IC50>100 nM respectively.

Row | SMILES | IC50 [nM]
1 | CN(C)C(=O)C(=O)NC12CCC(Cn3c1nc(C(=O)NCc1ccc(F)cc1)c(O)c3=O)C2 (single isomer, unassigned) [Example 411, Ethanediamide, N′-[2-[[[(4-fluorophenyl)methyl]amino]carbonyl]-6,7,8,9-tetrahydro-3-hydroxy-4-oxo-7,11-methanopyrimido[1,2-a]azepin-10(4H)-yl]-N,N-dimethyl-] | < 10
2 | CN(C)C(=O)C(=O)NC12CCC(CCn3c1nc(C(=O)NCc1ccc(F)cc1)c(O)c3=O)C2 (single isomer, unassigned) [Example 413, Ethanediamide, N′-[2-[[[(4-fluorophenyl)methyl]amino]carbonyl]-7,8,9,10-tetrahydro-3-hydroxy-4-oxo-8,11-methano-4H-pyrimido[1,2-a]azocin-11(6H)-yl]-N,N-dimethyl-] | < 10
3 | CC(=O)N1CCCC1C(=O)NC12CCC(CC1)Cn1c2nc(C(=O)NCc2ccc(F)cc2)c(O)c1=O (stereo in doubt) [Example 253, 7,10-Ethanopyrimido[1,2-a]azepine-2-carboxamide, 10-[[[(2R)-1-acetyl-2-pyrrolidinyl]carbonyl]amino]-N-[(4-fluorophenyl)methyl]-4,6,7,8,9,10-hexahydro-3-hydroxy-4-oxo-] | 10 to 100
4 | CS(=O)(=O)N1CCCC1C(=O)NC12CCC(CC1)Cn1c2nc(C(=O)NCc2ccc(F)cc2)c(O)c1=O (stereo in doubt) [Example 254, 7,10-Ethanopyrimido[1,2-a]azepine-2-carboxamide, N-[(4-fluorophenyl)methyl]-4,6,7,8,9,10-hexahydro-3-hydroxy-10-[[[(2R)-1-(methylsulfonyl)-2-pyrrolidinyl]carbonyl]amino]-4-oxo-] | < 10
5 | CC(=O)N1CCC1C(=O)NC12CCC(CC1)Cn1c2nc(C(=O)NCc2ccc(F)c(C)c2)c(O)c1=O (stereo in doubt) [Example 275, 7,10-Ethanopyrimido[1,2-a]azepine-2-carboxamide, 10-[[[(2S)-1-acetyl-2-azetidinyl]carbonyl]amino]-N-[(4-fluoro-3-methylphenyl)methyl]-4,6,7,8,9,10-hexahydro-3-hydroxy-4-oxo-] | < 10
6 | O=C(NCc1ccc(F)cc1)c1nc2n(c(=O)c1O)CC1CNCC2C1 (centres unmarked) [Example 7, 7,11-Methano-4H-pyrimido[1,2-a][1,5]diazocine-2-carboxamide, N-[(4-fluorophenyl)methyl]-6,7,8,9,10,11-hexahydro-3-hydroxy-4-oxo-] | 10 to 100
7 | CN(C(=O)OCc1ccccc1)C1c2nc(C(=O)NCc3ccc(F)cc3)c(O)c(=O)n2CC2CCC1C2 (centres unmarked) [Example 8] | < 10
8 | CNC1c2nc(C(=O)NCc3ccc(F)cc3)c(O)c(=O)n2CC2CCC1C2 (centres unmarked) [Example 9, 7,10-Methano-4H-pyrimido[1,2-a]azocine-2-carboxamide, N-[(4-fluorophenyl)methyl]-6,7,8,9,10,11-hexahydro-3-hydroxy-11-(methylamino)-4-oxo-] | > 100
9 | NC12CCC(CC1)n1c2nc(C(=O)NCc2ccc(F)cc2)c(O)c1=O [Example 11, 6,9-Ethano-4H-pyrido[1,2-a]pyrimidine-2-carboxamide, 9-amino-N-[(4-fluorophenyl)methyl]-6,7,8,9-tetrahydro-3-hydroxy-4-oxo-] | 10 to 100
10 | CC(=O)NC12CCC(CC1)n1c2nc(C(=O)NCc2ccc(F)cc2)c(O)c1=O [Example 12, 6,9-Ethano-4H-pyrido[1,2-a]pyrimidine-2-carboxamide, 9-(acetylamino)-N-[(4-fluorophenyl)methyl]-6,7,8,9-tetrahydro-3-hydroxy-4-oxo-] | < 10
11 | CS(=O)(=O)NC12CCC(CC1)n1c2nc(C(=O)NCc2ccc(F)cc2)c(O)c1=O [Example 13, 6,9-ethano-4H-pyrido[1,2-a]pyrimidine-2-carboxamide, N-[(4-fluorophenyl)methyl]-6,7,8,9-tetrahydro-3-hydroxy-9-[(methylsulfonyl)amino]-4-oxo-] | < 10
12 | CN(C)CC(=O)NC12CCC(CC1)n1c2nc(C(=O)NCc2ccc(F)cc2)c(O)c1=O [Example 14, 6,9-Ethano-4H-pyrido[1,2-a]pyrimidine-2-carboxamide, 9-[[(dimethylamino)acetyl]amino]-N-[(4-fluorophenyl)methyl]-6,7,8,9-tetrahydro-3-hydroxy-4-oxo-] | 10 to 100
13 | Cn1nc(C(C)(C)C)cc1C(=O)NC12CCC(CC1)n1c2nc(C(=O)NCc2ccc(F)cc2)c(O)c1=O [Example 15, 6,9-Ethano-4H-pyrido[1,2-a]pyrimidine-2-carboxamide, 9-[[[3-(1,1-dimethylethyl)-1-methyl-1H-pyrazol-5-yl]carbonyl]amino]-N-[(4-fluorophenyl)methyl]-6,7,8,9-tetrahydro-3-hydroxy-4-oxo-] | < 10
14 | CN(C)C(=O)C(=O)NC12CCC(CC1)n1c2nc(C(=O)NCc2ccc(F)cc2)c(O)c1=O [Example 16, Ethanediamide, N′-[2-[[[(4-fluorophenyl)methyl]amino]carbonyl]-7,8-dihydro-3-hydroxy-4-oxo-6,9-ethano-4H-pyrido[1,2-a]pyrimidin-9(6H)-yl]-N,N-dimethyl-] | < 10
15 | Cc1nnc(C(=O)NC23CCC(CC2)n2c3nc(C(=O)NCc3ccc(F)cc3)c(O)c2=O)o1 [Example 17, 6,9-Ethano-4H-pyrido[1,2-a]pyrimidine-2-carboxamide, N-[(4-fluorophenyl)methyl]-6,7,8,9-tetrahydro-3-hydroxy-9-[[(5-methyl-1,3,4-oxadiazol-2-yl)carbonyl]amino]-4-oxo-] | < 10
16 | O=C(NC12CCC(CC1)Cn1c2nc(C(=O)NCc2ccc(F)cc2)c(O)c1=O)OCc1ccccc1 [Example 18, Benzyl (2-((4-fluorobenzyl)carbamoyl)-3-hydroxy-4-oxo-6,7,8,9-tetrahydro-7,10-ethanopyrimido[1,2-a]azepin-10(4H)-yl)carbamate] | < 10
17 | CC(=O)NC12CCC(CC1)Cn1c2nc(C(=O)NCc2ccc(F)cc2)c(O)c1=O [Example 20, 10-(Acetylamino)-N-(4-fluorobenzyl)-3-hydroxy-4-oxo-4,6,7,8,9,10-hexahydro-7,10-ethanopyrimido[1,2-a]azepine-2-carboxamide] | < 10
18 | CS(=O)(=O)NC12CCC(CC1)Cn1c2nc(C(=O)NCc2ccc(F)cc2)c(O)c1=O [Example 21, N-(4-Fluorobenzyl)-3-hydroxy-10-((methylsulfonyl)amino)-4-oxo-4,6,7,8,9,10-hexahydro-7,10-ethanopyrimido[1,2-a]azepine-2-carboxamide] | < 10
19 | O=C(NCc1ccc(F)cc1)c1nc2n(c(=O)c1O)CC1CCC2(NC(=O)N2CCOCC2)CC1 [Example 22, N-(4-Fluorobenzyl)-3-hydroxy-10-((4-morpholinylcarbonyl)amino)-4-oxo-4,6,7,8,9,10-hexahydro-7,10-ethanopyrimido[1,2-a]azepine-2-carboxamide] | 10 to 100
20 | CS(=O)(=O)N1CCN(C(=O)NC23CCC(CC2)Cn2c3nc(C(=O)NCc3ccc(F)cc3)c(O)c2=O)C1=O [Example 23, N-(4-Fluorobenzyl)-3-hydroxy-10-(((3-(methylsulfonyl)-2-oxo-1-imidazolidinyl)carbonyl)amino)-4-oxo-4,6,7,8,9,10-hexahydro-7,10-ethanopyrimido[1,2-a]azepine-2-carboxamide] | < 10
